From PubChem BioAssay AID256 (DTP/NCI, 2004)
Several values for one entry are separate records, joined by “and”; a condition that tells them apart may be missing. Identical values can stand only once. Toxic doses and inconclusive results are not listed. Rule for the calls: active = survival T/C of 150% or more; inactive = T/C below 125% in these data.

Tested on: CD2F1 mice, L1210 leukemia ip, survival T/C
Test: NCI In Vivo Anticancer Drug Screen. Data for tumor model L1210 Leukemia (intraperitoneal) in CD2F1 (CDF1) mice
Details: higher = longer survival
Method in brief: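 Vehicle-treated tumor-bearing mice served as controls (C) for compound-treated mice (T). Reported figure is T divided by C.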

[1] = endpoint: mean survival time, dose: 100.0 mg/kg/injection, schedule: Q01DX009 (ip), vehicle: saline with Tween-80
[2] = endpoint: mean survival time, dose: 200.0 mg/kg/injection, schedule: Q01DX009 (ip), vehicle: saline with Tween-80
[3] = endpoint: mean survival time, dose: 400.0 mg/kg/injection, schedule: Q01DX009 (ip), vehicle: saline with Tween-80
[4] = endpoint: mean survival time, dose: 100.0 mg/kg/injection, schedule: Q01DX009 (ip), vehicle: saline

Measured: T/C

C=C(C)C(=O)OC1C/C(CO)=C\C(O)C/C(C)=C/C2OC(=O)C(=C)C21 (stereo not drawn)
inactive: endpoint: mean survival time, dose: 1.25 mg/kg/injection, schedule: Q01DX009 (ip), vehicle: saline + alcohol 103 % of control and 104 % of control | endpoint: mean survival time, dose: 2.5 mg/kg/injection, schedule: Q01DX009 (ip), vehicle: saline + alcohol 116 % of control and 101 % of control | endpoint: mean survival time, dose: 3.75 mg/kg/injection, schedule: Q01DX009 (ip), vehicle: saline + alcohol 114 % of control | endpoint: mean survival time, dose: 5.0 mg/kg/injection, schedule: Q01DX009 (ip), vehicle: saline + alcohol 113 % of control and 123 % of control | endpoint: mean survival time, dose: 7.5 mg/kg/injection, schedule: Q01DX009 (ip), vehicle: saline + alcohol 114 % of control | endpoint: mean survival time, dose: 10.0 mg/kg/injection, schedule: Q01DX009 (ip), vehicle: saline + alcohol 110 % of control | endpoint: mean survival time, dose: 15.0 mg/kg/injection, schedule: Q01DX009 (ip), vehicle: saline + alcohol 106 % of control | endpoint: mean survival time, dose: 20.0 mg/kg/injection, schedule: Q01DX009 (ip), vehicle: saline + alcohol 122 % of control | endpoint: mean survival time, dose: 30.0 mg/kg/injection, schedule: Q01DX009 (ip), vehicle: saline + alcohol 120 % of control | endpoint: mean survival time, dose: 40.0 mg/kg/injection, schedule: Q01DX009 (ip), vehicle: saline + alcohol 97 % of control

CC[n+]1ccc(Nc2ccc(/C=C/c3ccc4cc(Nc5cc[n+](CC)cc5)ccc4[n+]3CC)cc2)cc1
inactive: endpoint: mean survival time, dose: 2.5 mg/kg/injection, schedule: Q01DX009 (oral), vehicle: saline 98 % of control | endpoint: mean survival time, dose: 5.0 mg/kg/injection, schedule: Q01DX009 (oral), vehicle: saline 102 % of control | endpoint: mean survival time, dose: 10.0 mg/kg/injection, schedule: Q01DX009 (oral), vehicle: saline 88 % of control

COC1OC(OC2OC=C3C(=O)OC4CC(C)C2C34)C(O)C(O)C1O (stereo not drawn)
inactive: endpoint: median survival time, dose: 4.0 mg/kg/injection, schedule: Q01DX005 (ip), vehicle: Klucel (hydroxypropylcellulose) (HPC) 104 % of control | endpoint: median survival time, dose: 8.0 mg/kg/injection, schedule: Q01DX005 (ip), vehicle: Klucel (hydroxypropylcellulose) (HPC) 101 % of control | endpoint: median survival time, dose: 16.0 mg/kg/injection, schedule: Q01DX005 (ip), vehicle: Klucel (hydroxypropylcellulose) (HPC) 104 % of control | endpoint: median survival time, dose: 32.0 mg/kg/injection, schedule: Q01DX005 (ip), vehicle: Klucel (hydroxypropylcellulose) (HPC) 109 % of control

O=c1cc[nH]cc1
inactive: [1] 94 % of control | endpoint: mean survival time, dose: 100.0 mg/kg/injection, schedule: Q04DX003 (ip), vehicle: saline 103 % of control | [2] 100 % of control | endpoint: mean survival time, dose: 200.0 mg/kg/injection, schedule: Q04DX003 (ip), vehicle: saline 97 % of control | [3] 96 % of control | endpoint: mean survival time, dose: 400.0 mg/kg/injection, schedule: Q04DX003 (ip), vehicle: saline 95 % of control

Nc1nc(N)nc(-c2ccncc2)n1
inactive: endpoint: mean survival time, dose: 12.5 mg/kg/injection, schedule: Q01DX009 (ip), vehicle: saline with Tween-80 102 % of control | endpoint: mean survival time, dose: 25.0 mg/kg/injection, schedule: Q01DX009 (ip), vehicle: saline with Tween-80 106 % of control | endpoint: mean survival time, dose: 50.0 mg/kg/injection, schedule: Q01DX009 (ip), vehicle: saline with Tween-80 102 % of control

Cc1ccc(NCCN2CCCCC2)c2c(=O)c3ccccc3sc12
inactive: endpoint: mean survival time, dose: 100.0 mg/kg/injection, schedule: Q04DX003 (ip), vehicle: Klucel (hydroxypropylcellulose) (HPC) 93 % of control | endpoint: mean survival time, dose: 200.0 mg/kg/injection, schedule: Q04DX003 (ip), vehicle: Klucel (hydroxypropylcellulose) (HPC) 103 % of control | endpoint: mean survival time, dose: 400.0 mg/kg/injection, schedule: Q04DX003 (ip), vehicle: Klucel (hydroxypropylcellulose) (HPC) 109 % of control

c1ccc([P+](Cc2ccc(C[P+](c3ccccc3)(c3ccccc3)c3ccccc3)cc2)(c2ccccc2)c2ccccc2)cc1
inactive: endpoint: mean survival time, dose: 0.07 mg/kg/injection, schedule: Q01DX009 (ip), vehicle: saline sonified 94 % of control | endpoint: mean survival time, dose: 0.07 mg/kg/injection, schedule: Q04DX003 (ip), vehicle: saline with Tween-80 97 % of control | endpoint: mean survival time, dose: 0.15 mg/kg/injection, schedule: Q01DX009 (ip), vehicle: saline sonified 98 % of control | endpoint: mean survival time, dose: 0.15 mg/kg/injection, schedule: Q04DX003 (ip), vehicle: saline with Tween-80 93 % of control | endpoint: mean survival time, dose: 0.3 mg/kg/injection, schedule: Q01DX009 (ip), vehicle: saline sonified 93 % of control | endpoint: mean survival time, dose: 0.3 mg/kg/injection, schedule: Q04DX003 (ip), vehicle: saline with Tween-80 93 % of control | endpoint: mean survival time, dose: 0.6 mg/kg/injection, schedule: Q01DX009 (ip), vehicle: saline sonified 96 % of control | endpoint: mean survival time, dose: 0.6 mg/kg/injection, schedule: Q04DX003 (ip), vehicle: saline with Tween-80 98 % of control

CCC(c1ccc(O)c(CN(CC)CC)c1)C(CC)c1ccc(O)c(CN(CC)CC)c1 (stereo not drawn)
inactive: endpoint: mean survival time, dose: 100.0 mg/kg/injection, schedule: Q04DX002 (ip), vehicle: saline with Tween-80 92 % of control | endpoint: mean survival time, dose: 200.0 mg/kg/injection, schedule: Q04DX002 (ip), vehicle: saline with Tween-80 92 % of control

Cc1ccc(C(=O)N/N=C/C(=O)O)cc1
inactive: endpoint: mean survival time, dose: 25.0 mg/kg/injection, schedule: Q01DX009 (ip), vehicle: water 102 % of control | endpoint: mean survival time, dose: 50.0 mg/kg/injection, schedule: Q01DX009 (ip), vehicle: water 95 % of control | endpoint: mean survival time, dose: 100.0 mg/kg/injection, schedule: Q01DX009 (ip), vehicle: water 102 % of control | endpoint: mean survival time, dose: 200.0 mg/kg/injection, schedule: Q01DX009 (ip), vehicle: water 95 % of control

O=C(O)C(F)(F)F.O=C(O)C(F)(F)F.O=C(O)C(F)(F)F.O=C(O)C(F)(F)F.[Rh].[Rh]
inactive: endpoint: mean survival time, dose: 12.5 mg/kg/injection, schedule: Q01DX009 (ip), vehicle: saline 107 % of control | endpoint: mean survival time, dose: 25.0 mg/kg/injection, schedule: Q01DX009 (ip), vehicle: saline 115 % of control | endpoint: mean survival time, dose: 50.0 mg/kg/injection, schedule: Q01DX009 (ip), vehicle: saline 118 % of control | [4] 107 % of control

Cc1nc2n[nH]c(N)c2nc1C
inactive: [4] 100 % of control | endpoint: mean survival time, dose: 200.0 mg/kg/injection, schedule: Q01DX009 (ip), vehicle: saline 106 % of control | endpoint: mean survival time, dose: 400.0 mg/kg/injection, schedule: Q01DX009 (ip), vehicle: saline 106 % of control

CCOC(=O)Nc1cc(NC/C(CCc2ccccc2)=N/O)c([N+](=O)[O-])c(N)n1
inactive: endpoint: mean survival time, dose: 100.0 mg/kg/injection, schedule: Q01DX001 (ip), vehicle: Klucel (hydroxypropylcellulose) (HPC) 96 % of control | endpoint: mean survival time, dose: 200.0 mg/kg/injection, schedule: Q01DX001 (ip), vehicle: Klucel (hydroxypropylcellulose) (HPC) 91 % of control | endpoint: mean survival time, dose: 400.0 mg/kg/injection, schedule: Q01DX001 (ip), vehicle: Klucel (hydroxypropylcellulose) (HPC) 90 % of control

COC(=O)c1cncn1C(C)c1cccc2ccccc12 (stereo not drawn)
inactive: endpoint: mean survival time, dose: 100.0 mg/kg/injection, schedule: Q04DX003 (ip), vehicle: saline with Tween-80 108 % of control | endpoint: mean survival time, dose: 200.0 mg/kg/injection, schedule: Q04DX003 (ip), vehicle: saline with Tween-80 100 % of control

Cc1nc2ccccc2nc1CBr
inactive: endpoint: mean survival time, dose: 12.5 mg/kg/injection, schedule: Q01DX009 (ip), vehicle: acetone 110 % of control

Cc1ccc(NC(=S)NCCO)cc1C
inactive: [1] 114 % of control

CC1(C)OC2C(CO)OC(NC3=C(C#N)CCCC3)C2O1 (stereo not drawn)
inactive: endpoint: mean survival time, dose: 12.5 mg/kg/injection, schedule: Q01DX005 (ip), vehicle: other 103 % of control | endpoint: mean survival time, dose: 25.0 mg/kg/injection, schedule: Q01DX005 (ip), vehicle: other 105 % of control | endpoint: mean survival time, dose: 50.0 mg/kg/injection, schedule: Q01DX005 (ip), vehicle: other 103 % of control | endpoint: mean survival time, dose: 100.0 mg/kg/injection, schedule: Q01DX005 (ip), vehicle: other 97 % of control | endpoint: mean survival time, dose: 200.0 mg/kg/injection, schedule: Q01DX005 (ip), vehicle: other 103 % of control

Cc1ccc([N+](=O)[O-])cc1NC(=O)NNC(=O)CNC(=O)Nc1cccc(C(F)(F)F)c1
inactive: [1] 92 % of control | [2] 89 % of control | [3] 96 % of control

Cc1cccc2c(CBr)cc(=O)[nH]c12
inactive: endpoint: mean survival time, dose: 12.5 mg/kg/injection, schedule: Q04DX003 (ip), vehicle: saline with Tween-80 101 % of control | endpoint: mean survival time, dose: 25.0 mg/kg/injection, schedule: Q04DX003 (ip), vehicle: saline with Tween-80 101 % of control | endpoint: mean survival time, dose: 50.0 mg/kg/injection, schedule: Q04DX003 (ip), vehicle: saline with Tween-80 101 % of control
